{"source": "patent US11872262B2", "about": "“Means and methods for treating bacterial infections” (VIB VZW, priority 2017, dated 2024)", "assay": "Solubility of peptide after ultracentrifugation", "type": "physicochemical", "settings": "30 min after dissolving", "description": "FIG. 1: Activity, cytotoxicity and aggregation of antibacterial aggregating peptides. (A) Time-killing curve of selected peptides against E. coli strain O157 treated at MIC concentration (average and s.d. of 3 replicates). (B, C, D) Transmission electron microcopy (TEM) of cross-sections of E. coli O157 embedded in resin. B is mock treated, C is P2- and D is P105-treated E. coli O157 (2 h). […] (F) Concentration-dependent hemolysis of human erythrocytes by selected peptides (average and s.d. of 3 replicates). (G) Cytoxicity of Colpeptin1 to human HeLa cells measured by CellTiter Blue assay (average and s.d. of 3 replicates) and (H) by LDH release assay (average and s.d. of 3 replicates). […] Data are from a single experiment that was replicated 3 times (J) Histogram of the size distribution of particles calculated from the DLS data recorded of freshly dissolved colpeptin1 using a linear polymer as particle model. […] (M) Fluorescence intensity of the amyloid-specific dye pFTAA added to preparation of colpeptin1, normalised to the intensity observed with amyloid fibrils of the Alzheimer beta-peptide at the same concentration in monomeric units (average and s.d. of 3 replicates). […] (0) Aggregation kinetics of Colpeptin1 monitored by pFTAA fluorescence in the presence of 1 mM hexaphosphate (average and s.d. of 4 replicates). […]", "note": "Residues, ends and D or L forms follow the SMILES beside them."}
{"smiles": "CC(C)C[C@H](NC(=O)CNC(=O)[C@H](CCCNC(=N)N)NC(=O)[C@@H]1CCCN1C(=O)[C@H](CCCNC(=N)N)NC(=O)[C@H](CCCNC(=N)N)NC(=O)[C@@H](NC(=O)[C@H](CC(C)C)NC(=O)[C@H](C)NC(=O)[C@H](CC(C)C)NC(=O)CNC(=O)[C@H](CC(C)C)NC(=O)CNC(=O)[C@@H](N)CCCNC(=N)N)C(C)C)C(=O)NCC(=O)N[C@@H](CC(C)C)C(=O)N[C@@H](C)C(=O)N[C@@H](CC(C)C)C(=O)N[C@H](C(=O)N[C@@H](CCCNC(=N)N)C(=O)N[C@@H](CCCNC(=N)N)C(=O)O)C(C)C", "note": "[Peptide P2] (H-RGLGLALVRRPRGLGLALVRR-OH)", "values": [{"measurement": "peptide remaining in solution", "result": "less than 60%"}]}
